Assay results reported in patent US12622977B2, “Antibody drug conjugate” (CHIA TAI TIANQING PHARMACEUTICAL GROUP CO., LTD., priority 2020, dated 2026).

Key:
Format in all cases: cell-based
[1] = test system: HER2 positive tumor cells NCI-N87; assay: Proliferation inhibition of NCI-N87 cells by DXD and DDDXD (CCK-8); conditions: Homo sapiens, NCI-N87, 120 h
Experimental: DXD and DDDXD were pre-diluted to 140,000 ng/mL in culture medium and labeled as S1, and then five-fold serially diluted to obtain their corresponding reference samples S1-S9; the final drug concentration range was 35000 ng/mL to 0.0896 ng/mL with 9 concentrations in total. HER2 positive tumor cells NCI-N87 in the logarithmic growth phase were collected, adjusted to a density of 1×10^5 cells/mL, and plated at 100 μL per well, and a blank well without any cells was set as a control. The above serially diluted two samples were added at 50 μL per well. The plate was incubated in an incubator at 37° C. with 5% CO2 for 5 days. The culture medium was discarded, and CCK-8 (Dojindo, Japan, Cat. No. CK04) working solution was added at 100 μL per well. The plate was incubated for 4-5 h for color developing and placed in a microplate reader (manufacturer: Thermo, Model: VarioskanFlash). The absorbance values at a wavelength of 450 nm were read and recorded using a reference wavelength of 630 nm. The proliferation inhibition against the tumor cells were calculated.

[2] = test system: JIMT-1 tumor cells; assay: Killing of trastuzumab-resistant cell JIMT-1 with human PBMC effector cells (ADCC, CytoTox96); conditions: effector-to-target ratio 20:1
Experimental: The killing effects of the anti-Her2 bispecific antibodies on target cells (JIMT-1, source: AddexBio, Cat. No. C0006005) were studied using NK cells provided by human PBMCs (peripheral blood mononuclear cells), and the in vitro activity of the anti-Her2 bispecific antibodies was assessed by EC50 value.
The specific procedures are as follows: JIMT-1 cells were adjusted to a cell density of 3×10^5 cells/mL using 1640 medium containing 2% FBS (fetal bovine serum) and seeded in a 96-well cell culture plate (eppendorf, Cat. No. 0030730199) at 50 μL per well. […] Human PBMCs were adjusted to a cell density of 1.5×10^6 cells/mL using medium for experiment and added at 100 μL per well. An administration group (target cell+effector cell+antibody or control drug), a target cell group (JIMT-1BT474 cell), an effector cell group (human PBMC), a target cell+effector cell group, a blank control group (medium) and a lysis solution control group, and a target cell maximum release group (target cell+lysis solution) were set, with the effector-to-target cell ratio being 20:1. 45 min prior to the assay, 20 μL/well of lysis solution (Promega, Cat. No. G182A) was added to the target cell maximum release group and the lysis solution control group. After 45 min, the cell lysis rates were measured using a CytoTox96® nonradioactive cytotoxicity assay (Promega, G1780). […]

[3] = test system: NCI-N87 Her2++ tumor cells; assay: Killing of Her2 positive target cell NCI-N87 with human PBMC effector cells (ADCC, CytoTox96); conditions: effector-to-target ratio 10:1
Experimental: The killing effects of the anti-Her2 bispecific antibodies on target cells (NCI-N87 Her2++, source: the Cell Bank of Type Culture Collection Committee of the Chinese Academy of Sciences) were studied using NK cells provided by human PBMCs (peripheral blood mononuclear cells), and the in vitro activity of the anti-Her2 bispecific antibodies was assessed by EC50 value.
The specific procedures are as follows: NCI-N87 cells were adjusted to a cell density of 3×10^5 cells/mL using 1640 medium containing 2% FBS (fetal bovine serum) and seeded in a 96-well cell culture plate (eppendorf, Cat. No. 0030730199) at 50 μL per well. […] Human PBMCs were adjusted to a cell density of 1.5×10^6 cells/mL using medium for experiment and added at 100 μL per well. An administration group (target cell+effector cell+antibody or control drug), a target cell group (NCI-N87 cell), an effector cell group (human PBMC), a target cell+effector cell group, a blank control group (medium) and a lysis solution control group, and a target cell maximum release group (target cell+lysis solution) were set, with the effector-to-target cell ratio being 10:1. […] After 45 min, the cell lysis rates were measured using a CytoTox96® nonradioactive cytotoxicity assay (Promega, G1780). […]

Compound | IC50 [1] [nM] | EC50 [2] [nM] | EC50 [3] [nM]
CC[C@@]1(O)C(=O)OCc2c1cc1n(c2=O)Cc2c-1nc1cc(F)c(C)c3c1c2[C@@H](NC(=O)CO)CC3 [DXD] | 4.45 | – | –
T-DM1 | – | 0.0836 | 0.0739
